Source: ChEMBL document CHEMBL1156329, “Bioisostere of valtrate, anti-HIV principle by inhibition for nuclear export of Rev” (Bioorg Med Chem Lett, 2010)
Activity calls are given as the source filed them. No cut-off for these calls is given here.

Columns and labels:
[1] = Inhibition of hemagglutininin-tagged HIV1 Rev protein nuclear export in human HeLa cells assessed as protein localization after 12 hrs by indirect fluorescent antibody technique; format: cell-based, Human immunodeficiency virus 1
[2] = tested on: HeLa; test: Inhibition of hemagglutininin-tagged HIV1 Rev protein nuclear export in human HeLa cells assessed as protein localization at 10 uM after 12 hrs by indirect fluorescent antibody technique; format: cell-based; details: Human immunodeficiency virus 1

| IC50 [1] | Structure (SMILES) | inhibition [2] |
| --- | --- | --- |
| 2.5 µM | CC(=O)OCC1=CO[C@@H](OC(=O)CC(C)C)[C@H]2C1=C[C@H](OC(=O)CC(C)C)[C@]21CO1 [VALTRATE] |  |
| 4.4 µM | CC(=O)OCC1=CO[C@@H](OC(=O)CC(C)C)[C@H]2[C@@H]1C[C@H](OC(=O)CC(C)C)[C@]21CO1 | Active |
